In the supplement of paper PMC11061612:

How the values were obtained:
Test in all cases: Bliss excess, mean over the matrix (fraction); higher = more synergy
[1] = test system: A4-Fuk (B-Lymphoblastic Leukemia)
In short: (§1)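 Bliss excess equals the observed combination effect minus the expected value EA + EB − EA·EB, where EA and EB are the effects of each agent alone. Combination Emax is the second-highest inhibition within the matrix. Inhibition was scaled from CellTiter-Glo 2.0 luminescence, with 0 set by vehicle wells and 1 by blank wells, after 72 hours of two-drug dosing of cells plated in 1536-well plates.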

[2] = test system: COLO-668 (Small Cell Lung Carcinoma)
In short: as §1

COLO-679 (Melanoma) = test system: COLO-679 (Melanoma)
In short: as §1

[3] = test system: Ca-Ski (Cervical Carcinoma)
In short: as §1

[4] = test system: DU-145 (Prostate Carcinoma)
In short: as §1

[5] = test system: EFO-21 (Ovarian Carcinoma)
In short: as §1

[6] = test system: HAL-01 (B-Lymphoblastic Leukemia)
In short: as §1

[7] = test system: KGN (Other Solid Carcinomas)
In short: as §1

[8] = test system: MDA-MB-453 (Breast Carcinoma)
In short: as §1

[9] = test system: ME-180 (Cervical Carcinoma)
In short: as §1

[10] = test system: MOLT-4 (T-Lymphoblastic Leukemia)
In short: as §1

[11] = test system: MV-4-11 (Acute Myeloid Leukemia)
In short: as §1

[12] = test system: Mo-T (Other Blood Carcinomas)
In short: as §1

[13] = test system: NCI-H1355 (Lung Adenocarcinoma)
In short: as §1

[14] = test system: NCI-H1993 (Lung Adenocarcinoma)
In short: as §1

[15] = test system: OE33 (Esophageal Adenocarcinoma)
In short: as §1

SK-N-AS (Neuroblastoma) = test system: SK-N-AS (Neuroblastoma)
In short: as §1

[16] = test system: SKN (Other Solid Carcinomas)
In short: as §1

[17] = test system: SW872 (Other Solid Carcinomas)
In short: as §1

[18] = test system: SW982 (Other Solid Carcinomas)
In short: as §1

SMILES	Bliss excess [1]	Bliss excess [2]	Bliss excess (COLO-679 (Melanoma))	Bliss excess [3]	Bliss excess [4]	Bliss excess [5]	Bliss excess [6]	Bliss excess [7]	Bliss excess [8]	Bliss excess [9]	Bliss excess [10]	Bliss excess [11]	Bliss excess [12]	Bliss excess [13]	Bliss excess [14]	Bliss excess [15]	Bliss excess (SK-N-AS (Neuroblastoma))	Bliss excess [16]	Bliss excess [17]	Bliss excess [18]
Cc1cc2ncnn2cc1Nc1ncc2c(n1)n(C1CCOCC1)c(=O)n2C [AZD7648] + O=C(c1cc(Cc2n[nH]c(=O)c3ccccc23)ccc1F)N1CCN(C(=O)C2CC2)CC1 [Olaparib] (first compound max 10 µM, 7x7, partner max 10 µM)	-0.038	-0.0105	-0.039	-0.0467	-0.026	-0.045	0.0522	-0.0384	-0.0144	-0.0432	-0.0277	-0.0389	-0.049	-0.0538	-0.0321	-0.0359	-0.0337	-0.0448	-0.0126	0.0002
CN(CCO)CC[C@H](CSc1ccccc1)Nc1ccc(S(=O)(=O)NC(=O)c2ccc(N3CCC([C@@H](O)c4ccccc4-c4ccc(Cl)cc4)CC3)cc2)cc1S(=O)(=O)C(F)(F)F [AZD4320] + Nc1ccn([C@@H]2O[C@H](CO)[C@@H](O)C2(F)F)c(=O)n1 [Gemcitabine] (first compound max 1 µM, 7x7, partner max 0.3 µM)	-0.0912	0.0417	-0.0226	0.0469	-0.033	0.0353	0.0448	-0.0204	0.0093	-0.0249	-0.0209	-0.023	0.114	-0.0349	-0.0164	-0.0527	0.0011	0.0198	0.0199	0.0339
CN(CCO)CC[C@H](CSc1ccccc1)Nc1ccc(S(=O)(=O)NC(=O)c2ccc(N3CCC([C@@H](O)c4ccccc4-c4ccc(Cl)cc4)CC3)cc2)cc1S(=O)(=O)C(F)(F)F [AZD4320] + CCN(CCO)CCCOc1ccc2c(Nc3cc(CC(=O)Nc4cccc(F)c4)[nH]n3)ncnc2c1 [AZD2811] (first compound max 1 µM, 7x7, partner max 1 µM)	0.0624	0.0302	0.0201	0.119	-0.0341	-0.0616	-0.0085	-0.0739	0.0154	0.0343	0.0322	0.0064	-0.003	-0.0133	-0.0043	-0.0398	-0.0041	0.0383	-0.0215	0.0447
CN(CCO)CC[C@H](CSc1ccccc1)Nc1ccc(S(=O)(=O)NC(=O)c2ccc(N3CCC([C@@H](O)c4ccccc4-c4ccc(Cl)cc4)CC3)cc2)cc1S(=O)(=O)C(F)(F)F [AZD4320] + C1CN(CCC1(C(=O)N[C@@H](CCO)C2=CC=C(C=C2)Cl)N)C3=NC=NC4=C3C=CN4 [Capivasertib] (first compound max 1 µM, 7x7, partner max 3 µM)	-0.0013	0.034	-0.0431	0.0249	-0.0342	-0.0827	0.0022	-0.0839	-0.0534	-0.0238	0.0173	0.0185	-0.0137	-0.0648	-0.0592	-0.0575	-0.0397	-0.0279	-0.0237	-0.0426
Cc1nc(Nc2ncc(C(=O)Nc3c(C)cccc3Cl)s2)cc(N2CCN(CCO)CC2)n1 [Dasatinib] + CC(=O)Nc1cccc(-n2c(=O)n(C3CC3)c(=O)c3c(Nc4ccc(I)cc4F)n(C)c(=O)c(C)c32)c1 [Trametinib] (first compound max 2 µM, 7x7, partner max 1 µM)	-0.0013	-0.0121	-0.137	0.0639	-0.0081	0.0296	0.0436	-0.0643	-0.035	0.0171	0.0717	-0.128	-0.0835	0.0328	-0.0254	-0.0082	0.0361	-0.0618	0.101	-0.0319
CN(CCO)CC[C@H](CSc1ccccc1)Nc1ccc(S(=O)(=O)NC(=O)c2ccc(N3CCC([C@@H](O)c4ccccc4-c4ccc(Cl)cc4)CC3)cc2)cc1S(=O)(=O)C(F)(F)F [AZD4320] + Cn1cnc2c(F)c(Nc3ccc(Br)cc3Cl)c(C(=O)NOCCO)cc21 [Selumetinib] (first compound max 1 µM, 7x7, partner max 3 µM)	0.073	0.114	0.0716	0.0763	0.0057	-0.0084	-0.0053	0.0113	-0.0218	0.0771	0.0365	0.0513	0.0434	0.0529	-0.0307	0.0249	-0.0204	-0.0209	0.0556	-0.0042
Cc1cc2ncnn2cc1Nc1ncc2c(n1)n(C1CCOCC1)c(=O)n2C [AZD7648] + CN(C)CCCOc1ccc(-c2ccc3ncc4c(c3c2)n(C2CCOCC2)c(=O)n4C)cn1 [AZD0156] (first compound max 10 µM, 7x7, partner max 1 µM)	0.0001	-0.0252	-0.0259	0.0424	-0.0142	-0.0063	-0.0058	-0.0424	0.0257	-0.0167	0.0068	0.0291	-0.122	-0.033	-0.0225	0.0005	-0.008	0.0229	0.0713	-0.0471
N#Cc1cnc(Nc2cc(NC[C@H]3CNCCO3)c(C(F)(F)F)cn2)cn1 [SRA737] + C=CCn1c(=O)c2cnc(Nc3ccc(N4CCN(C)CC4)cc3)nc2n1-c1cccc(C(C)(C)O)n1 [AZD1775] (first compound max 10 µM, partner max 1 µM)	0.0277	0.151	-0.107	0.117	-0.0105	–	0.0645	0.0807	0.0927	-0.0149	0.12	0.0409	-0.0097	-0.0046	0.194	0.0063	0.0512	-0.0293	0.0756	0.0316
Cc1c2c(nn1C)CSCc1cc(n(C)n1)CSc1cc(c3ccccc3c1)OCCCc1c(C(=O)O)n(C)c3c-2c(Cl)ccc13 [AZD5991] + Cn1cnc2c(F)c(Nc3ccc(Br)cc3Cl)c(C(=O)NOCCO)cc21 [Selumetinib] (first compound max 1 µM, 7x7, partner max 3 µM)	–	0.106	-0.0191	0.0502	0.003	-0.0248	0.062	-0.0338	0.0055	-0.0192	0.0167	0.0172	-0.0167	-0.0258	0.0043	–	-0.0277	-0.0276	-0.003	0.0248
CN(CCO)CC[C@H](CSc1ccccc1)Nc1ccc(S(=O)(=O)NC(=O)c2ccc(N3CCC([C@@H](O)c4ccccc4-c4ccc(Cl)cc4)CC3)cc2)cc1S(=O)(=O)C(F)(F)F [AZD4320] + Cc1cc2ncnn2cc1Nc1ncc2c(n1)n(C1CCOCC1)c(=O)n2C [AZD7648] (first compound max 1 µM, 7x7, partner max 10 µM)	-0.0211	-0.0431	-0.0351	-0.0243	-0.0355	-0.0461	0.0071	-0.103	-0.0409	-0.007	0.0422	-0.0133	-0.0057	-0.052	-0.0205	-0.0489	-0.0399	-0.0249	-0.0262	0.0065
Cc1cc2ncnn2cc1Nc1ncc2c(n1)n(C1CCOCC1)c(=O)n2C [AZD7648] + C=CCn1c(=O)c2cnc(Nc3ccc(N4CCN(C)CC4)cc3)nc2n1-c1cccc(C(C)(C)O)n1 [AZD1775] (first compound max 10 µM, partner max 1 µM)	-0.0655	-0.0151	-0.0446	-0.0255	-0.0341	0.0175	0.183	-0.0266	-0.0223	-0.0378	0.0141	0.053	-0.14	-0.0276	-0.0167	0.0062	0.0212	-0.0103	0.0554	-0.0111
C[C@@H](c1ccc2nccn2c1)n1nnc2ncc(-c3cnn(C)c3)nc21 [Savolitinib] + CC1(C)CCC(CN2CCN(c3ccc(C(=O)NS(=O)(=O)c4ccc(NCC5CCOCC5)c([N+](=O)[O-])c4)c(Oc4cnc5[nH]ccc5c4)c3)CC2)=C(c2ccc(Cl)cc2)C1 [Venetoclax] (first compound max 1 µM, 7x7, partner max 1 µM)	-0.0269	-0.0624	-0.0676	-0.0475	-0.0339	-0.0679	-0.0387	-0.0249	-0.0173	-0.084	0.0879	0.0246	-0.0492	-0.0398	-0.0306	0.001	-0.0568	-0.0442	-0.0203	-0.046
Cc1cc2ncnn2cc1Nc1ncc2c(n1)n(C1CCOCC1)c(=O)n2C [AZD7648] + CCN(CCO)CCCOc1ccc2c(Nc3cc(CC(=O)Nc4cccc(F)c4)[nH]n3)ncnc2c1 [AZD2811] (first compound max 10 µM, 7x7, partner max 1 µM)	0.0759	0.0084	-0.0126	0.0387	-0.0078	-0.0061	0.0199	-0.0649	-0.0013	-0.0485	0.009	-0.0538	-0.0582	-0.0401	0.0171	-0.0315	-0.0011	-0.033	0.0723	-0.0569
N#Cc1cnc(Nc2cc(NC[C@H]3CNCCO3)c(C(F)(F)F)cn2)cn1 [SRA737] + Nc1ccn([C@@H]2O[C@H](CO)[C@@H](O)C2(F)F)c(=O)n1 [Gemcitabine] (first compound max 10 µM, 7x7, partner max 0.3 µM)	0.0278	-0.0355	-0.0808	0.0666	0.0276	0.0169	0.0046	0.0342	-0.0075	–	0.0522	-0.0314	-0.0134	0.0299	0.0158	0.0039	-0.0283	-0.0073	0.0236	0.0238
